Measured values published in US20050112742A1, “High temperature and alkaline stable catalase” (priority 2003, published 2005).
“Also recorded” adds a separate entry of the source.

Tests used:
[1] = molecular target: T1, Thermus brockianus catalase (SEQ ID NO:2, SEQ ID NO:5) (Thermus brockianus, UniProt A0ABM7XHT8); assay: Peroxidase activity with peroxidase substrates; type: biochemical; conditions: hydrogen peroxide 1 mM, 20 mM Tris pH 8.0, 70° C.
T1 construct: in solution and immobilized on Eupergit C
T1 sequence (A0ABM7XHT8 6-291): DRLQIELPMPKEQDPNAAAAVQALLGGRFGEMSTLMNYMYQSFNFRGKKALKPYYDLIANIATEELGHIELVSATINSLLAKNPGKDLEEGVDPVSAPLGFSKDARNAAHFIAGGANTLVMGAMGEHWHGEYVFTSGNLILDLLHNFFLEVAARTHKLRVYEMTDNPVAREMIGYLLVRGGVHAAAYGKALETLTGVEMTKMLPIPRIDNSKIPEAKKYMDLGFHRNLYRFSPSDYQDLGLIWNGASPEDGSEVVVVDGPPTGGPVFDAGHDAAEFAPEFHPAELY
Method: The reactions were monitored spectrophotometrically at 460 and 420 nm, respectively. The substrates were dissolved in 20 mM Tris buffer, pH 8.0, and the assays were conducted at 70° C.

[2] = molecular target: T1, Thermus brockianus catalase (SEQ ID NO:2, SEQ ID NO:5); assay: Michaelis-Menten kinetics of hydrogen peroxide decomposition (240 nm); type: biochemical; conditions: for Vmax: 20 mM Tris pH 8, 70° C.
Method: The buffer pH was adjusted to 8 at 70° C.
The constants were calculated by fitting the Michaelis-Menten equation to a plot of reaction velocity versus substrate concentration using nonlinear analysis (using GraFit Version 4, Erithacus Software Limited, Horley Surrey, U.K.). […] The enzyme was assayed as in Example I, except that it was preincubated with the inhibitor for 5 min prior to assay.
The turnover number was calculated assuming four active centers per catalase molecule.

[3] = molecular target: Beef liver catalase (Bos taurus, UniProt P00432); conditions: Non-Immobilized Enzyme; inhibition observed at substrate concentrations above
[4] = tested on: R. capsulatus catalase or catalase-peroxidase; conditions: Table 3; cited from earlier work
[5] = tested on: Thermoleophilum album catalase; conditions: cited from earlier work
[6] = tested on: Thermoascus aurantiacus catalase; conditions: cited from earlier work
[7] = tested on: E. coli catalase or catalase-peroxidase; conditions: Table 3; cited from earlier work
[8] = tested on: Vitreoscilla sp. catalase or catalase-peroxidase; conditions: Table 3; cited from earlier work
[9] = tested on: Bacillus sp. catalase or catalase-peroxidase; conditions: cited from earlier work
[10] = tested on: M. tuberculosis catalase or catalase-peroxidase; conditions: cited from earlier work
[11] = tested on: N. crassa catalase or catalase-peroxidase; conditions: cited from earlier work
[12] = tested on: A. nidulans catalase or catalase-peroxidase; conditions: cited from earlier work
[13] = tested on: T. brockianus catalase; type: biochemical, Thermus brockianus
[14] = tested on: Archaeoglobus fulgidus recombinant catalase-peroxidase (putative perA gene); conditions: in words; cited from earlier work
[15] = Stability of immobilized catalase; type: physicochemical; conditions: 70° C.
Method: For beef liver catalase, the stability at 70° C. and pH 10 increased from no stability to being stable for 5 minutes. The A. niger catalase was stable for at least 6 hours under these conditions. The stability of immobilized T. brockianus catalase is assayed as done with immobilized beef liver catalase.

[16] = substrate: OO; assay: purified protein, by the assay type
[17] = H2O2 concentration showing substrate inhibition

Beef liver catalase, sequence (P00432 whole entry): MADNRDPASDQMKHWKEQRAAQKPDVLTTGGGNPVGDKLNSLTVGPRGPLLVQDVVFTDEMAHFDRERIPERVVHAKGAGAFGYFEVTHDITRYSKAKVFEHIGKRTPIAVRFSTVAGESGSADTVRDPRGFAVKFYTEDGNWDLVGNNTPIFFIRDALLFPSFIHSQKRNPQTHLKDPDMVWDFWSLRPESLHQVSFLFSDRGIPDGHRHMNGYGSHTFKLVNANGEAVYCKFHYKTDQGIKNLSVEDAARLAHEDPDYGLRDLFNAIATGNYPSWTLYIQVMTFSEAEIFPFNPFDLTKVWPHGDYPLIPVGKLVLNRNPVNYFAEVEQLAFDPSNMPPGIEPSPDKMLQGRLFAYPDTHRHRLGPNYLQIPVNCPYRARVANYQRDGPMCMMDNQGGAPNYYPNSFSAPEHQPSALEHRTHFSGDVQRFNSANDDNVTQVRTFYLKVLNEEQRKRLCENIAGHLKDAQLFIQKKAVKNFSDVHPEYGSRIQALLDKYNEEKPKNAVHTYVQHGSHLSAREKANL

CCn1c(=NN=c2sc3cc(S(=O)(=O)O)ccc3n2CC)sc2cc(S(=O)(=O)O)ccc21 [2,2′-azino-bis(3-ethylbenzothiazoline-6-sulfonic acid)]
peroxidase activity ([1]; substrate 10 mM, 420 nm): absence of peroxidase activity

OO [hydrogen peroxide]
Vmax ([2]; hydrogen peroxide 3 to 450 mM): 20.3 mM/min·mg protein
Vmax ([2]; Table 3): 20.3 mM/min/mg
turnover number (kcat) ([2]; calculated assuming four active centers per catalase molecule, pH 8, 70° C.): 6000 s⁻¹
H2O2 Inhibition ([2]; no inhibition observed for H2O2 concentrations up to 450 mM, pH 8, 70° C.): no apparent substrate inhibition/inactivation; also recorded: not inhibited; also recorded: None^c
substrate inhibition concentration (footnote b) [3]: ^bApproximated value - inhibition observed at substrate concentrations above 100 mM.
Km [4]: 4.2 mM
H2O2 Inhibition [5, 17]: 20 mM
Km ([5]; Table 3): 15 mM
Vmax ([5]; Table 3): 2.3 mM/min/mg
H2O2 Inhibition [6, 17]: 60 mM
Kcat ([6]; Table 3): 107000 s⁻¹
Km ([6]; Table 3): 48 mM
Kcat [7]: 16300 s⁻¹
Km [7]: 3.9 mM
Kcat [8]: 26700 s⁻¹
Km [8]: 16 mM
H2O2 Inhibition [9, 17]: 30 mM
Km ([9]; Table 3): 6.8 mM
Km ([10]; Table 3): 5.2 mM
Kcat [10]: 10100 s⁻¹
Km ([11]; Table 3): 25 mM
H2O2 Inhibition ([11]; no inhibition observed for H2O2 concentrations up to 200 mM): None^b
H2O2 Inhibition [12, 17]: 10 mM
Kcat ([12]; Table 3): 7170 s⁻¹
Km ([12]; Table 3): 4.3 mM

Nc1nc[nH]n1 [3-amino-1,2,4-triazole]
inhibition of T. brockianus catalase [13]: completely inhibited
inhibition of T. brockianus catalase (in words, no concentration given) [13]: inhibition
inhibition by 3-amino-1,2,4-triazole [14]: inhibited

COc1cc(-c2ccc(N)c(OC)c2)ccc1N [o-dianisidine]
peroxidase activity ([1]; substrate 0.5 mM, 460 nm): absence of peroxidase activity

B1: Beef Liver: beef liver catalase, commercial comparison enzyme (protein, UniProt P00432 2-527, looked up)
Catalase: ADNRDPASDQMKHWKEQRAAQKPDVLTTGGGNPVGDKLNSLTVGPRGPLLVQDVVFTDEMAHFDRERIPERVVHAKGAGAFGYFEVTHDITRYSKAKVFEHIGKRTPIAVRFSTVAGESGSADTVRDPRGFAVKFYTEDGNWDLVGNNTPIFFIRDALLFPSFIHSQKRNPQTHLKDPDMVWDFWSLRPESLHQVSFLFSDRGIPDGHRHMNGYGSHTFKLVNANGEAVYCKFHYKTDQGIKNLSVEDAARLAHEDPDYGLRDLFNAIATGNYPSWTLYIQVMTFSEAEIFPFNPFDLTKVWPHGDYPLIPVGKLVLNRNPVNYFAEVEQLAFDPSNMPPGIEPSPDKMLQGRLFAYPDTHRHRLGPNYLQIPVNCPYRARVANYQRDGPMCMMDNQGGAPNYYPNSFSAPEHQPSALEHRTHFSGDVQRFNSANDDNVTQVRTFYLKVLNEEQRKRLCENIAGHLKDAQLFIQKKAVKNFSDVHPEYGSRIQALLDKYNEEKPKNAVHTYVQHGSHLSAREKANL
stability, not immobilized ([15]; pH 10, before immobilization): no stability
time stable, immobilized enzyme ([15]; pH 10, immobilized): 5 min

B2: Thermus brockianus catalase (SEQ ID NO:2, SEQ ID NO:5) (Thermus brockianus) (protein)
chain: DRLQIELPMPKEQDPNAAAAVQALLGGRFGEMSTLMNYMYQSFNFRGKKALKPYYDLIANIATEELGHIELVSATINSLLAKNPGKDLEEGVDPVSAPLGFSKDARNAAHFIAGGANTLVMGAMGEHWHGEYVFTSGNLILDLLHNFFLEVAARTHKLRVYEMTDNPVAREMIGYLLVRGGVHAAAYGKALETLTGVEMTKMLPIPRIDNSKIPEAKKYMDLGFHRNLYRFSPSDYQDLGLIWNGASPEDGSEVVVVDGPPTGGPVFDAGHDAAEFAPEFHPAELY
Km ([16]; other: 20 mM Tris pH 8, 70° C., hydrogen peroxide 3 to 450 mM, pH 8.0, 70.0 °C): 35.5 mM
Km ([16]; other: Immobilized Enzyme, packed column, PBS pH 7.2, 20 mL/min, optimum temperature, pH 7.2): 17 mM
Km ([16]; other: Non-Immobilized Enzyme, optimum temperature and pH): 35 mM
